Experimental data from patent US8093282B2, “Therapeutic N-aryl or N-heteroaryl pyrazolidine and pyrazolidinone derivatives” (Allergan, Inc., priority 2008, dated 2012).

Tested on: lashes and adjacent hairs of the treated eye
Experiment: Eyelash / hair growth observed in glaucoma patients treated in one eye
Format: in vivo, human
Details: glaucoma patient treated in only one eye
From the text: In the course of treating patients having glaucoma, treatment may only be appropriate in one eye. […] The lash appearance on the lids of the treated eyes would have appeared quite attractive if it represented a bilateral phenomenon. As a result of its asymmetric nature, the long lashes on one side could be construed as disturbing from a cosmetic standpoint. A systemic examination was preformed as a result of the asymmetric phenomenon. It soon became apparent that this altered appearance was not an isolated finding. […] Definite differences could be identified to varying degrees in the lashes and adjacent hairs of all patients who were taking the drug on a unilateral basis for longer than 6 months.
The changes in the lashes were apparent on gross inspection in several patients once attention was focused on the issue. In those with light colored hair and lashes, the differences were only seen easily with the aid of the high magnification and lighting capabilities of the slit lamp biomicroscope. In the course of glaucoma follow-up examination, attention is generally immediately focused on the eye itself. As a result of the high power magnification needed only one eye is seen at a time and the eye is seen at a high enough power that the lashes are not in focus. […]

In the case of `CCNC(=O)CCC/C=C\C[C@@H]1[C@@H](/C=C/[C@@H](O)CCc2ccccc2)[C@H](O)C[C@@H]1O` [bimatoprost], the “lash appearance in the treated eye versus the non-treated eye” value is reported as “longer, thicker, and fuller”.
